Experimental findings from patent US20210255193A1, “LYSINE REACTIVE PROBES AND USES THEREOF” (The Scripps Research Institute, priority 2017, published 2021) are described below.

Experiment in all cases: competitive isoTOP-ABPP
Common to all, as to type: binding

The target of assay [1] is T1, DYNC1H1 Cytoplasmic dynein 1 heavy chain 1 (Homo sapiens, UniProt Q14204).
T1 construct: isoTOP-ABPP experiments performed in cell lysates (in vitro); endogenous in cells; host or cells: soluble proteome of human cancer cell lines (MDA-MB-231, Ramos, Jurkat)
T1 sequence (Q14204 whole entry): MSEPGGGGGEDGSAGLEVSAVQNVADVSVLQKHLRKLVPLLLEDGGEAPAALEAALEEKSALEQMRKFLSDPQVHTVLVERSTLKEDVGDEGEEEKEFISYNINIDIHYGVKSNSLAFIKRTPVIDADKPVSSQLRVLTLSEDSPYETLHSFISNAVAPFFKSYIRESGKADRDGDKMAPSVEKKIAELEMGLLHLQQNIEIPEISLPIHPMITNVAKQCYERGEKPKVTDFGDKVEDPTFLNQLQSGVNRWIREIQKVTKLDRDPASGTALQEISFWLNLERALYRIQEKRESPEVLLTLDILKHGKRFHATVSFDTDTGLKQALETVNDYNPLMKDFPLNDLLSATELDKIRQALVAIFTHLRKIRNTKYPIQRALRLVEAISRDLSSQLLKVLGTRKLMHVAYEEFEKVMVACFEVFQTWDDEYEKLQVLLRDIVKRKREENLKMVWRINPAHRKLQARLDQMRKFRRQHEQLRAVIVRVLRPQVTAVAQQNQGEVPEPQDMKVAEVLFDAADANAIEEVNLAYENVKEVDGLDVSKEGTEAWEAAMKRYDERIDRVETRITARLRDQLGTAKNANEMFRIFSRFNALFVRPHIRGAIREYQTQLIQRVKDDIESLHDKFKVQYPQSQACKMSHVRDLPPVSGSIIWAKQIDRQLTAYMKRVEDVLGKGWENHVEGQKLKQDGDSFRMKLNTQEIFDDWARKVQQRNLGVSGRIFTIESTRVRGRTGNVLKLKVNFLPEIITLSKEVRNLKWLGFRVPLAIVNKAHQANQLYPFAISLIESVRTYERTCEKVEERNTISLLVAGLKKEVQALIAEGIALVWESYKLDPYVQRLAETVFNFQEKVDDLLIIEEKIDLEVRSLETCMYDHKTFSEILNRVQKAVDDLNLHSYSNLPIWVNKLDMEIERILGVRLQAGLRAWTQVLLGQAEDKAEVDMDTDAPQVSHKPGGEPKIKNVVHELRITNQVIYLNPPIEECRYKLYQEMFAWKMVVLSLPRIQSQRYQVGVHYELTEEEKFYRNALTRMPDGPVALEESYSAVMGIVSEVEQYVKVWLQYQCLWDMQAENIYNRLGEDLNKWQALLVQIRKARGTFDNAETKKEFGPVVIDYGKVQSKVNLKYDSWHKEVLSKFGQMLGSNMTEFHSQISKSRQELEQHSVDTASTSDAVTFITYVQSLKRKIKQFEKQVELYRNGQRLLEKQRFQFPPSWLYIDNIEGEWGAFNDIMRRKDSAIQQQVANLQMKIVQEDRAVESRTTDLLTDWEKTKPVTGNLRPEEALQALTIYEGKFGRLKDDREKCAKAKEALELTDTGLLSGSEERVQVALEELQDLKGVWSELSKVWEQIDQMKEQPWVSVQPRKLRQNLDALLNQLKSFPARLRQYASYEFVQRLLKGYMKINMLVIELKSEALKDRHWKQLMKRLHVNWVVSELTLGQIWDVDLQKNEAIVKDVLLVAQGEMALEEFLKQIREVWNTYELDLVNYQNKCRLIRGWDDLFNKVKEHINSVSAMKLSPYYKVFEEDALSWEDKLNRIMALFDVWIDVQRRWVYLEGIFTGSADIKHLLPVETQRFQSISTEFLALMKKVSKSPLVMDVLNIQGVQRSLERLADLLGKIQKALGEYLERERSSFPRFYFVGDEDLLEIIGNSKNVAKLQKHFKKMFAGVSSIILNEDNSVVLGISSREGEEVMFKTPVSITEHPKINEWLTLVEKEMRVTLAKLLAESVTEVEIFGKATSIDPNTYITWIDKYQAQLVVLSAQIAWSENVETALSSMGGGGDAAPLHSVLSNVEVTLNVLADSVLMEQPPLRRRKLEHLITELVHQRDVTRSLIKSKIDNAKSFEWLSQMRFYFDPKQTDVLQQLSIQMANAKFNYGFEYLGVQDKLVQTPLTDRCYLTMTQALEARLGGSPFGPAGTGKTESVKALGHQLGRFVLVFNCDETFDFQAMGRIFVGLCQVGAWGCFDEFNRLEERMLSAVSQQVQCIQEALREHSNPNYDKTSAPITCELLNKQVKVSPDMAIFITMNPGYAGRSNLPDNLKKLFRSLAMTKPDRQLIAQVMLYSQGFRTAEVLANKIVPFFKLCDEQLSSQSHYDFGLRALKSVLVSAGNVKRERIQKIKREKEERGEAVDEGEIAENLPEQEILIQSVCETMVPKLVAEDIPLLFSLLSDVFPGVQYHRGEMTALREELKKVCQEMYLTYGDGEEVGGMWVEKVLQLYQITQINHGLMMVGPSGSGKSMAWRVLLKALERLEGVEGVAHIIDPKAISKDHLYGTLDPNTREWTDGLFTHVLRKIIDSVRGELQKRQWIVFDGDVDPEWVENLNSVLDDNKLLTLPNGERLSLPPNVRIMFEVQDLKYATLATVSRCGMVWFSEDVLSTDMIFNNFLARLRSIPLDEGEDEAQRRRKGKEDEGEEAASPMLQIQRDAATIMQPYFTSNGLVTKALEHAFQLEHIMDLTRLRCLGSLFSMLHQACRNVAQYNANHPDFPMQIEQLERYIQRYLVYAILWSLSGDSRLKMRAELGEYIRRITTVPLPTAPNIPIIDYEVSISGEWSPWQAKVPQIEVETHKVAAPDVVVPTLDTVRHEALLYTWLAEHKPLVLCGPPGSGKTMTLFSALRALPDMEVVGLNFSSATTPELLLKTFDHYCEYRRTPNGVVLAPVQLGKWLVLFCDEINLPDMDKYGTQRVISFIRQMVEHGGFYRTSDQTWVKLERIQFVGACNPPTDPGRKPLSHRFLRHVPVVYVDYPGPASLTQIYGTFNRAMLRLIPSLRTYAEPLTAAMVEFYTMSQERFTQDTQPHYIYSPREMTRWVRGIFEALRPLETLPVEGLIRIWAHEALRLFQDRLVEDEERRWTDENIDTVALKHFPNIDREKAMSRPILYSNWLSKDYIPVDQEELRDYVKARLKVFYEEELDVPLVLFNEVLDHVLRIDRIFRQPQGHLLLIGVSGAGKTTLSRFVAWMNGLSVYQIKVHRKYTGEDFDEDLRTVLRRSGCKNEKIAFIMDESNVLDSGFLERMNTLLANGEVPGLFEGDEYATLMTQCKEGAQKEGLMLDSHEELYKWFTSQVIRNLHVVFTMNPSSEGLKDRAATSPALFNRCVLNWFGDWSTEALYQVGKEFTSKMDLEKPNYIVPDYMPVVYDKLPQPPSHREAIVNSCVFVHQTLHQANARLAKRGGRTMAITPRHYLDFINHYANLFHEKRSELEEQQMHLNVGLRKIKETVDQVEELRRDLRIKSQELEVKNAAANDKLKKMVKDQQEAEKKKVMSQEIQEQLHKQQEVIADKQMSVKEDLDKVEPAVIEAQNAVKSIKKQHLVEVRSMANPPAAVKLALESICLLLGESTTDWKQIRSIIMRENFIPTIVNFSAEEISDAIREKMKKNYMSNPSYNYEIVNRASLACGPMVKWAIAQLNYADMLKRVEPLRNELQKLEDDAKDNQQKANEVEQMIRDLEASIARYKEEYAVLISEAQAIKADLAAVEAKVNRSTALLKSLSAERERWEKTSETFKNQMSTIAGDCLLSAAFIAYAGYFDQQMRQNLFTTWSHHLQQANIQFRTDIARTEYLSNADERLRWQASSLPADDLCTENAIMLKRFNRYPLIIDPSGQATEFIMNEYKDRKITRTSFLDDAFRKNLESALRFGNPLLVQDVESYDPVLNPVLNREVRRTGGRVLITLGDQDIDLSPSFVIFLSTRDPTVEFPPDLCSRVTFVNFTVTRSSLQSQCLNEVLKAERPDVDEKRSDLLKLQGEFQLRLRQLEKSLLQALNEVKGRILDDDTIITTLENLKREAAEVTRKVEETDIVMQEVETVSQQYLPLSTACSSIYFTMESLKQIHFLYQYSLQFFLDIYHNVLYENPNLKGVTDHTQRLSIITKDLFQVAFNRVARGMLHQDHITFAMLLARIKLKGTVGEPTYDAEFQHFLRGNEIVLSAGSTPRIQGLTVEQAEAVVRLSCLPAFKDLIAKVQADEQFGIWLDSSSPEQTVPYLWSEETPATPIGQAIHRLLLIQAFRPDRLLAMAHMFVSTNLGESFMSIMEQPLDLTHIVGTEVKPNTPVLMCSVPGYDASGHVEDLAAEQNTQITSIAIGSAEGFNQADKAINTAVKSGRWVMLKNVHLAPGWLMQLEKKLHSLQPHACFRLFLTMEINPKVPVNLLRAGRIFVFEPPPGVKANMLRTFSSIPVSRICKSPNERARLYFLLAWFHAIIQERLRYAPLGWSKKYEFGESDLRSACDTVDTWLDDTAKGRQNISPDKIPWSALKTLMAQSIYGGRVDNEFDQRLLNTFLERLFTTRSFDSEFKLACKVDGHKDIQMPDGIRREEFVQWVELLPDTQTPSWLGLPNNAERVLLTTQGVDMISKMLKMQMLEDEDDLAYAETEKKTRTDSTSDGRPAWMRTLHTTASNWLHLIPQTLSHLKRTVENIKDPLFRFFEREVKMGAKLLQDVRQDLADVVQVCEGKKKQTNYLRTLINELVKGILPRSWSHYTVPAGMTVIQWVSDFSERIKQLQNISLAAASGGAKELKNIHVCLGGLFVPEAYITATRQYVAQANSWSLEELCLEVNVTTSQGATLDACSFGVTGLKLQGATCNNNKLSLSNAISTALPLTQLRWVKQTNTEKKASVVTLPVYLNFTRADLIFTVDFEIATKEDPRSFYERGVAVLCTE
The settings on record: 50 uM, in vitro; for R value (DMSO/fragment) for probe 1 labeling: Q14204_K1649; for R value (DMSO/fragment) for probe 1 labeling / isoTOP-ABPP reactivity ratio at lysine Q14204_K1649: 231 sol; for isoTOP-ABPP ratio (R) at liganded lysine Q14204_K1649: sol, 231. In short, it runs like this: (§1)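 Here, isoTOP-ABPP measures loss of STP-alkyne labeling at individual lysines after fragment exposure in lysate. Activated esters are dosed at 50 μM, guanidinylating agents at 100 μM; the probe follows at 0.1 mM for 1 h. R ≥4 marks a liganded lysine.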

The target of assay [2] is T2, HNRNPK Heterogeneous nuclear ribonucleoprotein K (Homo sapiens, UniProt P61978).
T2 construct: isoTOP-ABPP experiments performed in cell lysates (in vitro); endogenous in cells; host or cells: soluble proteome of human cancer cell lines (MDA-MB-231, Ramos, Jurkat)
The settings on record: 50 uM, in vitro; for R value (DMSO/fragment) for probe 1 labeling: P61978_K405; for R value (DMSO/fragment) for probe 1 labeling / isoTOP-ABPP reactivity ratio at lysine P61978_K405: 231 sol; for isoTOP-ABPP ratio (R) at liganded lysine P61978_K405: sol, 231. In short, it runs like this:
as §1

For assay [3], the target named is T3, MAP2K3 Dual specificity mitogen-activated protein kinase (Homo sapiens, UniProt P46734).
T3 construct: isoTOP-ABPP experiments performed in cell lysates (in vitro); endogenous in cells; host or cells: soluble proteome of human cancer cell lines (MDA-MB-231; Ramos and Jurkat also prepared)
T3 sequence (P46734 1-347): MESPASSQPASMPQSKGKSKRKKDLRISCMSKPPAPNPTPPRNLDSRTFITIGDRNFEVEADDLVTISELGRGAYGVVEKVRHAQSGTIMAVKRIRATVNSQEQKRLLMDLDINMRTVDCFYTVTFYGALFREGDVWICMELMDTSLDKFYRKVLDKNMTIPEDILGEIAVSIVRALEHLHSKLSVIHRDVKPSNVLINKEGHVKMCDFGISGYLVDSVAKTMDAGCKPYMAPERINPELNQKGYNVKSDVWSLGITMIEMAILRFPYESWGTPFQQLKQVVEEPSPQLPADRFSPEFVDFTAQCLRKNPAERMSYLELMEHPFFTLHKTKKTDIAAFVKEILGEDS
The settings on record: 50 uM, in vitro; for R value (DMSO/fragment) for probe 1 labeling: P46734_K93; for R value (DMSO/fragment) for probe 1 labeling / isoTOP-ABPP reactivity ratio at lysine P46734_K93: 231 sol; for isoTOP-ABPP ratio (R) at liganded lysine P46734_K93: sol, 231. An outline of the steps: as §1

The target in assay [4] is T4, MRPS24 28S ribosomal protein S24, mitochondrial (Homo sapiens, UniProt Q96EL2).
T4 construct: isoTOP-ABPP experiments performed in cell lysates (in vitro); endogenous in cells; host or cells: soluble proteome of human cancer cell lines (MDA-MB-231; Ramos and Jurkat also prepared)
Conditions: 50 uM, in vitro; for R value (DMSO/fragment) for probe 1 labeling: Q96EL2_K94; for R value (DMSO/fragment) for probe 1 labeling / isoTOP-ABPP reactivity ratio at lysine Q96EL2_K94: 231 sol; for isoTOP-ABPP ratio (R) at liganded lysine Q96EL2_K94: sol, 231. In short, it runs like this:
as §1

In assay [5] the target is T5, MTOR Serine/threonine-protein kinase mTOR (Homo sapiens, UniProt P42345).
T5 construct: isoTOP-ABPP experiments performed in cell lysates (in vitro); endogenous in cells; host or cells: soluble proteome of human cancer cell lines (MDA-MB-231; Ramos and Jurkat also prepared)
The settings on record: 50 uM, in vitro; for R value (DMSO/fragment) for probe 1 labeling: P42345_K2066; for R value (DMSO/fragment) for probe 1 labeling / isoTOP-ABPP reactivity ratio at lysine P42345_K2066: 231 sol; for isoTOP-ABPP ratio (R) at liganded lysine P42345_K2066: sol, 231. In short, it runs like this: as §1

For assay [6], the target named is T6, RPL10 60S ribosomal protein L10 (Homo sapiens, UniProt P27635).
T6 construct: isoTOP-ABPP experiments performed in cell lysates (in vitro); endogenous in cells; host or cells: soluble proteome of human cancer cell lines (MDA-MB-231; Ramos and Jurkat also prepared)
The settings on record: 50 uM, in vitro; for R value (DMSO/fragment) for probe 1 labeling: P27635_K121; for R value (DMSO/fragment) for probe 1 labeling / isoTOP-ABPP reactivity ratio at lysine P27635_K121: 231 sol; for isoTOP-ABPP ratio (R) at liganded lysine P27635_K121: sol, 231. In short, it runs like this: as §1

In the case of `O=C(CCc1cn(-c2ccccc2)nc1-c1ccccc1)Oc1c(F)c(F)c(F)c(F)c1F` [fragment 19, Pentafluorophenyl 3-(1,3-diphenyl-1H-pyrazol-4-yl)propanoate], the “R value (DMSO/fragment) for probe 1 labeling” value (shortened to “R value (DMSO/fragment)”) is 1.0 in assay [1]; 1.3 in assay [2]; 0.9 in assay [3]; 1.4 in assay [4]; 0.9 in assay [5]; 0.9 in assay [6].

Take `O=C(Oc1c(F)c(F)c(F)c(F)c1F)C(c1ccccc1)c1ccccc1` [fragment 20, Pentafluorophenyl 2,2-diphenylacetate]: the “R value (DMSO/fragment)” value worked out at 1.0 in assay [1]; 1.0 in assay [2]; 0.9 in assay [3]; 0.9 in assay [4]; 1.0 in assay [5]; 0.7 in assay [6].

On to `O=C(Oc1c(F)c(F)c(F)c(F)c1F)c1cc(C(F)(F)F)cc(C(F)(F)F)c1` [fragment 21, Pentafluorophenyl 3,5-bis(trifluoromethyl)benzoate], for which the “R value (DMSO/fragment)” value stood at 1.4 in assay [1]; 1.0 in assay [2]; 0.9 in assay [3]; 0.8 in assay [4]; 0.7 in assay [5]; 0.8 in assay [6].

Regarding `O=C(CCc1cn(-c2ccccc2)nc1-c1ccccc1)Oc1ccc([N+](=O)[O-])cc1[N+](=O)[O-]` [fragment 29, 2,4-Dinitrophenyl 3-(1,3-diphenyl-1H-pyrazol-4-yl)propanoate], the “isoTOP-ABPP reactivity ratio at lysine Q14204_K1649” value in assay [1] is 1.1. For the same compound, the “isoTOP-ABPP reactivity ratio at lysine P61978_K405” value in assay [2] is 20.0. Besides, in assay [3], the “isoTOP-ABPP reactivity ratio at lysine P46734_K93” value was 0.9. Also, in assay [4], the “isoTOP-ABPP reactivity ratio at lysine Q96EL2_K94” value is given as 2.2. For the same compound, the “isoTOP-ABPP reactivity ratio at lysine P42345_K2066” value in assay [5] is given as 1.0. The “isoTOP-ABPP reactivity ratio at lysine P27635_K121” value in assay [6] is 1.4.

As to `Cn1cc(CC(=O)Oc2ccc([N+](=O)[O-])cc2[N+](=O)[O-])c2ccccc21` [fragment 32, 2,4-Dinitrophenyl 2-(1-methyl-1H-indol-3-yl)acetate], in assay [1], the “isoTOP-ABPP reactivity ratio at lysine Q14204_K1649” value was 1.2. The “isoTOP-ABPP reactivity ratio at lysine P61978_K405” value in assay [2] is given as 0.9. For the same compound, in assay [3], the “isoTOP-ABPP reactivity ratio at lysine P46734_K93” value came out at 1.4. Further, in assay [4], the “isoTOP-ABPP reactivity ratio at lysine Q96EL2_K94” value was determined as 5.1. Moreover, the “isoTOP-ABPP reactivity ratio at lysine P42345_K2066” value in assay [5] is given as 8.0. In addition, the “isoTOP-ABPP reactivity ratio at lysine P27635_K121” value in assay [6] stood at 1.7.

For `O=C(Oc1ccc([N+](=O)[O-])cc1[N+](=O)[O-])c1ccc2ccccc2n1` [fragment 35, 2,4-Dinitrophenyl quinoline-2-carboxylate], the “isoTOP-ABPP ratio (R) at liganded lysine Q14204_K1649” value in assay [1] is recorded as 1.0. In assay [2], the “isoTOP-ABPP ratio (R) at liganded lysine P61978_K405” value is 0.9. For the same compound, in assay [3], the “isoTOP-ABPP ratio (R) at liganded lysine P46734_K93” value is 1.0. Further, in assay [4], the “isoTOP-ABPP ratio (R) at liganded lysine Q96EL2_K94” value was determined as 1.3. Moreover, the “isoTOP-ABPP ratio (R) at liganded lysine P42345_K2066” value in assay [5] is 1.1. Further, the “isoTOP-ABPP ratio (R) at liganded lysine P27635_K121” value in assay [6] was 0.6.

With `O=C(CC12CC3CC(CC(C3)C1)C2)Oc1ccc([N+](=O)[O-])cc1[N+](=O)[O-]` [fragment 38, 2,4-Dinitrophenyl 2-(adamantan-1-yl)acetate], the “isoTOP-ABPP ratio (R) at liganded lysine Q14204_K1649” value in assay [1] was 1.0. Also, the “isoTOP-ABPP ratio (R) at liganded lysine P61978_K405” value in assay [2] is recorded as 20.0. For the same compound, the “isoTOP-ABPP ratio (R) at liganded lysine P46734_K93” value in assay [3] is 0.9. The “isoTOP-ABPP ratio (R) at liganded lysine Q96EL2_K94” value in assay [4] is listed as 3.1. Besides, the “isoTOP-ABPP ratio (R) at liganded lysine P42345_K2066” value in assay [5] is reported as 1.1. In assay [6], the “isoTOP-ABPP ratio (R) at liganded lysine P27635_K121” value was 20.0.
